ChEMBL document CHEMBL6096646, “Sulfonamide-derivatized galactosides selectively target an unexplored binding site in the galectin-9N-terminal domain” (Bioorg Med Chem, 2024)

Biological target: Galectin-7 (Homo sapiens, UniProt P47929)
Test: Binding affinity to human Galectin-7 assessed as dissociation constant by competitive fluorescence polarization assay

Galectin-7, sequence (P47929 whole entry): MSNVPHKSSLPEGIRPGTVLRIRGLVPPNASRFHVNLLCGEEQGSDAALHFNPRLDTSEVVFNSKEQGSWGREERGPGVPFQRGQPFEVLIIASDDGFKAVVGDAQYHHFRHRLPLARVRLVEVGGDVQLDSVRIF

With `CO[C@H]1O[C@H](CO)[C@H](O)[C@H](n2cc(-c3ccccc3NS(=O)(=O)c3cc(C(F)(F)F)cc(C(F)(F)F)c3)nn2)[C@H]1O` the Kd was greater than 1000 µM.
Work on `O=S(=O)(Nc1ccccc1-c1cn([C@@H]2[C@@H](O)[C@@H](Sc3ccc(Cl)c(Cl)c3)O[C@H](CO)[C@@H]2O)nn1)c1cc(C(F)(F)F)cc(C(F)(F)F)c1` yielded a Kd greater than 600 µM.
